# Article PMC10247784, “Physiological activation of human and mouse bitter taste receptors by bile acids” (Communications Biology, 2023)
# Target: T1, mouse Tas2r144 (Mus musculus, UniProt Q7TQB8)
# T1 construct: expressed in transfected cells; host or cells: HEK293T-Gα16gust44
# Assay: Calcium imaging assay (FLIPR), HEK293T-Gα16gust44 cells transfected with mouse Tas2r144
# Type: cell-based
# Conditions: for Δ F/F: Tas2r144
# Protocol: This set of bile acids was chosen because of their commercial availability in high purities, their diversity within the class of bile acids and their previous detection and quantitation in human blood. Stock solutions were prepared in DMSO.
# As basal growth medium for the HEK293T-Gα16gust44 cell line[17],[59] served Dulbecco’s modified eagle medium (DMEM) (Thermo Fisher Scientific, Darmstadt, Germany) supplemented with 10 % fetal bovine serum (Sigma-Aldrich, Steinheim, Germany), 2 mM L-glutamine (Sigma-Aldrich, Steinheim, Germany), 100 units/ml penicillin (Sigma Aldrich, Steinheim, Germany) and 100 µg/ml streptomycin (Sigma Aldrich, Steinheim, Germany). Growth conditions were 37 °C, 5 % CO2 and saturated air-humidity[60].
# HEK293T-Gα16gust44 cells were seeded on poly-D-lysine (10 µg/ml) coated 96-well plates to reach a confluence of 40-60 % the next day. For transient transfection 150 ng of plasmid DNA containing the receptor of interest and 0.3 µl lipofectamine 2000 (Thermo Fisher Scientific, Darmstadt, Germany) per well were used and transfection took place according to the manual of lipofectamine 2000. […] The empty vector DNA (mock) was transfected as negative control[14],[41].
# Cells were loaded using the calcium-sensitive fluorescent dye Fluo-4-AM (Abcam, Cambridge, Great Britain) in the presence of 2.5 mM probenecid (Sigma-Aldrich, Steinheim, Germany) the day after transfection[13],[41]. 1 h after loading, cells were washed with C1 buffer using a BioTek Cell Washer, incubated in the dark for half an hour and washed again. For automated agonist application and measurement of fluorescence changes, a FLIPR^TETRA device (Molecular Devices, San José, United States) was used. Viability of cells was tested by application of 100 nM Somatostatin 14 (Bachem, Bubendorf, Switzerland)[42].
# Measured data were negative control corrected by subtracting the signal of the mock-transfected cells and exported to Microsoft Excel using the FLIPR software ScreenWorks 4.2. In Microsoft Excel software, standardization of maximum fluorescence intensities to the basal fluorescence and normalization to the buffer-only control was done to calculate the relative fluorescence changes (ΔF/F).
# Initial screening experiments performed in duplicate wells were confirmed by at least one replication and representative traces were selected for display. All dose-response relationships were determined by three independent experiments (biological replicates) performed in duplicates (technical replicates). Threshold concentrations, defined as lowest substance concentrations leading to statistically significant elevated fluorescence changes in receptor-transfected cells compared with empty vector-transfected cells, were determined using SigmaPlot with Student’s t-test to evaluate statistical significance (p < 0.01).
# T1 sequence (Q7TQB8 whole entry): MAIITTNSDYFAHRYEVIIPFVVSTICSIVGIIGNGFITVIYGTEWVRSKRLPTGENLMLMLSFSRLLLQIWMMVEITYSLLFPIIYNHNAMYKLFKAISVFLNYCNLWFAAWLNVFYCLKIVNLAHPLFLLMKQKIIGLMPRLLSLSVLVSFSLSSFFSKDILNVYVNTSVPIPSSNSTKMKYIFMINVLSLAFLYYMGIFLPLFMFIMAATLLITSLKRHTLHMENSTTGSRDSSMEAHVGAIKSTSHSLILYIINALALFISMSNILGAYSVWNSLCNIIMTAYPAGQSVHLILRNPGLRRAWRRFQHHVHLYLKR
structure (smiles),measurement,setting,value
"C[C@H](CCC(=O)NCCS(=O)(=O)O)[C@H]1CC[C@H]2[C@@H]3[C@H](O)C[C@@H]4C[C@H](O)CC[C@]4(C)[C@H]3C[C@H](O)[C@]12C [Taurocholic Acid, taurocholic acid]",Δ F/F,"conc. 0,01 mM",-0.002199
same,Δ F/F,"conc. 0,1 mM",0.02935
same,Δ F/F,"conc. 0,03 mM",0.001887
same,Δ F/F,"conc. 0,3 mM",0.09426
same,Δ F/F,"conc. 0,003 mM",-2.869e-5
same,RLU,Time 0 s,0 RLU
same,RLU,Time 2 s,20.3472 RLU
same,RLU,Time 4 s,-2.315 RLU
same,RLU,Time 6 s,2.885 RLU
same,RLU,Time 8 s,19.0475 RLU
same,RLU,Time 12 s,10.0521 RLU
same,RLU,Time 14 s,38.5551 RLU
same,RLU,Time 16 s,31.9896 RLU
same,RLU,Time 18 s,16.9759 RLU
same,RLU,Time 18.781 s,35.5911 RLU
same,RLU,Time 20.781 s,-26.0614 RLU
same,RLU,Time 22.781 s,10.3855 RLU
same,RLU,Time 24.781 s,42.5149 RLU
same,RLU,Time 26.781 s,75.1117 RLU
same,RLU,Time 28.781 s,107.959 RLU
same,RLU,Time 30.781 s,191.931 RLU
same,RLU,Time 32.781 s,233.393 RLU
same,RLU,Time 34.781 s,329.647 RLU
same,RLU,Time 36.781 s,353.155 RLU
same,RLU,Time 38.781 s,375.923 RLU
same,RLU,Time 40.781 s,418.403 RLU
same,RLU,Time 42.781 s,459.472 RLU
same,RLU,Time 44.781 s,478.994 RLU
same,RLU,Time 46.781 s,502.94 RLU
same,RLU,Time 48.781 s,488.439 RLU
same,RLU,Time 50.781 s,507.687 RLU
same,RLU,Time 52.781 s,535.446 RLU
same,RLU,Time 54.781 s,537.48 RLU
same,RLU,Time 56.781 s,552.298 RLU
same,RLU,Time 58.781 s,553.568 RLU
same,RLU,Time 60.781 s,540.78 RLU
same,RLU,Time 62.781 s,553.576 RLU
same,RLU,Time 64.781 s,587.565 RLU
same,RLU,Time 66.781 s,607.94 RLU
same,RLU,Time 68.781 s,577.506 RLU
same,RLU,Time 70.781 s,560.61 RLU
same,RLU,Time 72.781 s,573.499 RLU
same,RLU,Time 74.781 s,563.961 RLU
same,RLU,Time 76.781 s,534.766 RLU
same,RLU,Time 78.781 s,571.912 RLU
same,RLU,Time 80.781 s,551.232 RLU
same,RLU,Time 82.781 s,526.613 RLU
same,RLU,Time 84.781 s,546.451 RLU
same,RLU,Time 86.781 s,562.077 RLU
same,RLU,Time 88.781 s,533.968 RLU
same,RLU,Time 90.781 s,548.478 RLU
same,RLU,Time 92.781 s,529.823 RLU
same,RLU,Time 94.781 s,519.583 RLU
same,RLU,Time 96.781 s,507.965 RLU
same,RLU,Time 98.781 s,551.349 RLU
same,RLU,Time 100.781 s,524.649 RLU
same,RLU,Time 102.781 s,541.47 RLU
same,RLU,Time 104.781 s,532.417 RLU
same,RLU,Time 106.781 s,501.886 RLU
same,RLU,Time 108.781 s,527.817 RLU
same,RLU,Time 110.781 s,463.149 RLU
same,RLU,Time 112.781 s,531.02 RLU
same,RLU,Time 114.781 s,478.341 RLU
same,RLU,Time 116.781 s,478.013 RLU
same,RLU,Time 118.781 s,466.916 RLU
same,RLU,Time 120.781 s,480.033 RLU
same,RLU,Time 122.781 s,446.768 RLU
same,RLU,Time 124.781 s,466.738 RLU
same,RLU,Time 126.781 s,436.51 RLU
same,RLU,Time 128.781 s,391.35 RLU
same,RLU,Time 130.781 s,423.189 RLU
same,RLU,Time 132.781 s,388.666 RLU
same,RLU,Time 134.781 s,393.586 RLU
same,RLU,Time 136.781 s,381.514 RLU
same,RLU,Time 137.562 s,357.695 RLU
same,RLU,Time 143.562 s,342.181 RLU
same,RLU,Time 149.562 s,317.247 RLU
same,RLU,Time 155.562 s,281.598 RLU
same,RLU,Time 161.562 s,257.735 RLU
same,RLU,Time 167.562 s,210.766 RLU
same,RLU,Time 173.562 s,206.542 RLU
same,RLU,Time 179.562 s,190.508 RLU
same,RLU,Time 185.562 s,200.355 RLU
same,RLU,Time 191.562 s,160.215 RLU
same,RLU,Time 197.562 s,155.746 RLU
same,RLU,Time 203.562 s,134.432 RLU
same,RLU,Time 209.562 s,105.802 RLU
same,RLU,Time 215.562 s,143.523 RLU
same,RLU,Time 221.562 s,59.3524 RLU
same,RLU,Time 227.562 s,55.9412 RLU
same,RLU,Time 233.562 s,52.6104 RLU
same,RLU,Time 239.562 s,63.4802 RLU
same,RLU,Time 245.562 s,58.9605 RLU
same,RLU,Time 293.562 s,59.2604 RLU
same,RLU,Time 299.562 s,83.1975 RLU
same,RLU,Time 305.562 s,80.6402 RLU
same,RLU,Time 311.562 s,35.6084 RLU
same,RLU,Time 317.562 s,31.2984 RLU
same,RLU,Time 323.562 s,-1.058 RLU
same,RLU,Time 329.562 s,12.6222 RLU
same,RLU,Time 335.562 s,-16.6341 RLU
same,RLU,Time 341.562 s,9.34 RLU
same,RLU,Time 347.562 s,17.8158 RLU
same,RLU,Time 353.562 s,33.5062 RLU
same,RLU,Time 359.562 s,34.8754 RLU
same,Activation threshold concentration Tas2r144,p < 0.01 vs empty vector,300 µM
